Test results reported in ChEMBL document CHEMBL1201861, “Genomics of Drug Sensitity in Cancer screening data, Wellcome Trust Sanger Institute”.

Tests used:
Assay in all cases: cells
[1] = test system: Becker; type: functional, cell-based, Homo sapiens; conditions: Homo sapiens, Becker;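 note: growth inhibition of Becker cells, read out with a cell viability assay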
[2] = test system: Calu-6; type: functional, cell-based, Homo sapiens; conditions: Homo sapiens, Calu-6;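 note: growth of human Calu-6 cells, read out by a cell viability assay, IC50 marking inhibition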
[3] = test system: ML-2; type: functional, cell-based, Homo sapiens; conditions: Homo sapiens, ML-2;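 note: growth inhibition of ML-2 cells, measured with a cell viability readout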
[4] = test system: NMC-G1; type: functional, cell-based, Homo sapiens; conditions: Homo sapiens, NMC-G1;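 note: growth inhibition of the NMC-G1 cell line, measured with a cell viability read-out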
[5] = test system: LB996-RCC; type: functional, cell-based, Homo sapiens; conditions: Homo sapiens, LB996-RCC
[6] = test system: EW-13; type: functional, cell-based, Homo sapiens; conditions: Homo sapiens, EW-13;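 note: growth inhibition of EW-13 cells, read out with a cell viability assay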
[7] = test system: TE-6; type: functional, cell-based, Homo sapiens; conditions: Homo sapiens, TE-6;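 note: growth inhibition of TE-6 cells, read out with a cell viability assay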
[8] = test system: SF-539; type: functional, cell-based, Homo sapiens; conditions: Homo sapiens, SF-539;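 note: Read-out is a cell viability assay, with IC50 reflecting inhibition of cell growth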
[9] = test system: L-428; type: functional, cell-based, Homo sapiens; conditions: Homo sapiens, L-428
[10] = test system: NB13; type: functional, cell-based, Homo sapiens; conditions: Homo sapiens, NB13;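 note: cell viability readout measuring growth inhibition of human NB13 cells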
[11] = test system: IST-MEL1; type: functional, cell-based, Homo sapiens; conditions: Homo sapiens, IST-MEL1;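 note: growth inhibition of the cell line, read out with a cell viability assay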
[12] = test system: SW982; type: functional, cell-based; conditions: Homo sapiens;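 note: growth inhibition of SW982 cells, read out with a cell viability assay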
[13] = test system: SK-LMS-1; type: functional, cell-based, Homo sapiens; conditions: Homo sapiens, SK-LMS-1;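 note: growth inhibition of human SK-LMS-1 cells, read out with a cell viability assay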
[14] = test system: ES5; type: functional, cell-based, Homo sapiens; conditions: Homo sapiens, ES5;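 note: growth inhibition of human ES5 cells, read out by a cell viability assay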
[15] = test system: A704; type: functional, cell-based; conditions: Homo sapiens;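 note: growth inhibition of human A704 cells, read out with a cell viability assay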
[16] = test system: LXF-289 cell line; type: functional, cell-based; conditions: Homo sapiens
[17] = test system: MS-1; type: functional, cell-based, Homo sapiens; conditions: Homo sapiens, MS-1;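 note: growth inhibition of MS-1 cells, read out by cell viability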
[18] = test system: MEG-01; type: functional, cell-based, Homo sapiens; conditions: Homo sapiens, MEG-01;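 note: growth inhibition of MEG-01 cells, read out by a cell viability assay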
[19] = test system: TE-9; type: functional, cell-based, Homo sapiens; conditions: Homo sapiens, TE-9;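 note: cell growth inhibition, measured with a cell viability readout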
[20] = test system: LB831-BLC; type: functional, cell-based, Homo sapiens; conditions: Homo sapiens, LB831-BLC;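 note: growth inhibition of LB831-BLC cells, read out with a cell viability assay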
[21] = test system: K5; type: functional, cell-based, Homo sapiens; conditions: Homo sapiens, K5
[22] = test system: DB; type: functional, cell-based, Homo sapiens; conditions: Homo sapiens, DB
[23] = test system: Ramos-2G6-4C10; type: functional, cell-based, Homo sapiens; conditions: Homo sapiens, Ramos-2G6-4C10;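 note: growth inhibition of the cell line, measured by a cell viability read-out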
[24] = test system: TE-1; type: functional, cell-based, Homo sapiens; conditions: Homo sapiens, TE-1;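 note: growth inhibition of the human TE-1 cell line, read out with a cell viability assay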
[25] = test system: ES6; type: functional, cell-based; conditions: Homo sapiens;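 note: growth inhibition of human ES6 cells, read out with a cell viability assay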
[26] = test system: LB2518-MEL; type: functional, cell-based; conditions: Homo sapiens;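 note: growth inhibition of human LB2518-MEL cells, measured with a cell viability assay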
[27] = test system: NB69; type: functional, cell-based, Homo sapiens; conditions: Homo sapiens, NB69;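 note: growth inhibition of NB69 cells, determined by a cell viability assay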
[28] = test system: MOLT-4; type: functional, cell-based, Homo sapiens; conditions: Homo sapiens, MOLT-4;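 note: growth inhibition of MOLT-4 cells, determined with a cell viability readout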
[29] = test system: NCI-H209; type: functional, cell-based, Homo sapiens; conditions: Homo sapiens, NCI-H209;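 note: growth inhibition of human NCI-H209 cells, measured by a cell viability assay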
[30] = test system: D-502MG; type: functional, cell-based, Homo sapiens; conditions: Homo sapiens, D-502MG
[31] = test system: SNB-75; type: functional, cell-based, Homo sapiens; conditions: Homo sapiens, SNB-75;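 note: cell viability assay measuring growth inhibition of human SNB-75 cells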
[32] = test system: EM-2; type: functional, cell-based, Homo sapiens; conditions: Homo sapiens, EM-2;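 note: growth inhibition of EM-2 cells, read out with a cell viability assay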
[33] = test system: AM-38; type: functional, cell-based, Homo sapiens; conditions: Homo sapiens, AM-38;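 note: growth inhibition of AM-38 cells of human origin, read out by a cell viability assay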
[34] = test system: HT-144; type: functional, cell-based, Homo sapiens; conditions: Homo sapiens, HT-144
[35] = test system: DEL; type: functional, cell-based, Homo sapiens; conditions: Homo sapiens, DEL;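 note: growth inhibition of the human DEL cell line, read out with a cell viability assay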
[36] = test system: SJSA-1; type: functional, cell-based, Homo sapiens; conditions: Homo sapiens, SJSA-1;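 note: growth inhibition of human SJSA-1 cells, read out through a cell viability measurement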
[37] = test system: LS-123; type: functional, cell-based, Homo sapiens; conditions: Homo sapiens, LS-123
[38] = test system: SW684; type: functional, cell-based, Homo sapiens; conditions: Homo sapiens, SW684;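 note: growth inhibition of human SW684 cells, measured by a cell viability assay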
[39] = test system: HDLM-2; type: functional, cell-based, Homo sapiens; conditions: Homo sapiens, HDLM-2;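 note: cell viability assay measuring suppression of HDLM-2 proliferation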
[40] = test system: SW 954; type: functional, cell-based, Homo sapiens; conditions: Homo sapiens, SW 954;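 note: growth inhibition of SW954 human cancer cells, read out as cell viability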
[41] = test system: A388; type: functional, cell-based; conditions: Homo sapiens;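 note: growth inhibition of human A388 cells, read out with a cell viability assay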
[42] = test system: NCI-H82; type: functional, cell-based, Homo sapiens; conditions: Homo sapiens, NCI-H82;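 note: growth inhibition of NCI-H82 cells, measured with a cell viability readout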
[43] = test system: TK-10; type: functional, cell-based, Homo sapiens; conditions: Homo sapiens, TK-10;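 note: growth inhibition of TK-10 cells, read out in a cell viability assay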
[44] = test system: TGW; type: functional, cell-based, Homo sapiens; conditions: Homo sapiens, TGW;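 note: growth inhibition of human TGW cells, read out with a cell viability assay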
[45] = test system: SHP77; type: functional, cell-based, Homo sapiens, SHP-77; conditions: Homo sapiens, SHP77;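 note: growth inhibition of human SHP-77 cells measured by a cell viability assay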
[46] = test system: GAK; type: functional, cell-based, Homo sapiens; conditions: Homo sapiens, GAK
[47] = test system: CTB-1; type: functional, cell-based, Homo sapiens; conditions: Homo sapiens, CTB-1
[48] = test system: A3-KAW; type: functional, cell-based, Homo sapiens; conditions: Homo sapiens, A3-KAW;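 note: growth inhibition of human A3-KAW cells, read out with a cell viability assay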
[49] = test system: MHH-NB-11; type: functional, cell-based, Homo sapiens; conditions: Homo sapiens, MHH-NB-11;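 note: growth inhibition of human MHH-NB-11 cells, read out by a cell viability assay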
[50] = test system: ES8; type: functional, cell-based, Homo sapiens; conditions: Homo sapiens, ES8;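 note: growth inhibition of human ES8 cells, read out with a cell viability assay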

Cc1ccc(NC(=O)c2ccc(CN3CCN(C)CC3)cc2)cc1Nc1nccc(-c2cccnc2)n1 [IMATINIB]
IC50 [1]: > 2000 nM
IC50 [2]: > 2000 nM
IC50 [3]: > 2000 nM
IC50 [4]: > 2000 nM
IC50 [5]: > 2000 nM
IC50 [6]: > 2000 nM
IC50 [7]: > 2000 nM
IC50 [8]: > 2000 nM
IC50 [9]: > 2000 nM
IC50 [10]: > 2000 nM
IC50 [11]: > 2000 nM
IC50 [12]: > 2000 nM
IC50 [13]: > 2000 nM
IC50 [14]: > 2000 nM
IC50 [15]: > 2000 nM
IC50 [16]: > 2000 nM
IC50 [17]: > 2000 nM
IC50 [18]: 89.2 nM
IC50 [19]: > 2000 nM
IC50 [20]: > 2000 nM
IC50 [21]: > 2000 nM
IC50 [22]: > 2000 nM
IC50 [23]: > 2000 nM
IC50 [24]: > 2000 nM
IC50 [25]: > 2000 nM
IC50 [26]: > 2000 nM
IC50 [27]: > 2000 nM
IC50 [28]: > 2000 nM
IC50 [29]: > 2000 nM
IC50 [30]: > 2000 nM
IC50 [31]: > 2000 nM
IC50 [32]: 88.8 nM
IC50 [33]: > 2000 nM
IC50 [34]: > 2000 nM
IC50 [35]: > 2000 nM
IC50 [36]: > 2000 nM
IC50 [37]: > 2000 nM
IC50 [38]: > 2000 nM
IC50 [39]: > 2000 nM
IC50 [40]: > 2000 nM
IC50 [41]: > 2000 nM
IC50 [42]: > 2000 nM
IC50 [43]: > 2000 nM
IC50 [44]: > 2000 nM
IC50 [45]: > 2000 nM
IC50 [47]: > 2000 nM
IC50 [48]: > 2000 nM
IC50 [49]: > 2000 nM
IC50 [50]: > 2000 nM
